Results taken from patent publication US10821115B2, “Compounds that inhibit Mcl-1 protein” (priority 2017, dated 2020).
pIC50: −log10 of the molar value.

Key:
[1] = biological target: recombinant human Mcl-1 (residues 171-327) / Bim interaction (Homo sapiens (Human), UniProt Q07820); experiment: biochemical; type: binding; details: TR-FRET, Mcl-1(171-327) / biotin-Bim (51-76); read-out: Mcl-1 HTRF IC50
[2] = test system: human multiple myeloma cell line, OPM-2; experiment: Cell viability assay (OPM-2 10 FBS), CellTiter-Glo; type: cell-based; details: Homo sapiens, OPM-2, 16 h, read-out: OPM-2 10% FBS IC50 IP, OPM-2 cells, 10% FBS, 16 h, CellTiter-Glo
Summary of the method: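 IC50 values come from 4-parameter logistic fits of luminescence signals reflecting cell viability. Treatment lasted 16 h at 37 °C in complete medium with 10% FBS, starting from 3000 cells/well.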

recombinant human Mcl-1 (residues 171-327) / Bim interaction, sequence (Q07820 171-327): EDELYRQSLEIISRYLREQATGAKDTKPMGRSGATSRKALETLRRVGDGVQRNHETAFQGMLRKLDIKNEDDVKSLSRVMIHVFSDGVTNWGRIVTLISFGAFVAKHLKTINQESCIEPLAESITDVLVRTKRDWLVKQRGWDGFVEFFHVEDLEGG

SMILES | pIC50 [1] | pIC50 [2]
COC(=O)[C@@H](C)NC(=O)C[C@]1(OC)/C=C/C[C@H](C)[C@@H](C)S(=O)(=O)NC(=O)c2ccc3c(c2)N(C[C@@H]2CC[C@H]21)C[C@@]1(CCCc2cc(Cl)ccc21)CO3 [Example 100528, methyl N-(((1S,3′R,6′R,7′S,8′E,11′S,12′R)-6-chloro-7′-methoxy-11′,12′-dimethyl-13′,13′-dioxido-15′-oxo-3,4-dihydro-2H-spiro[naphthalene-1,22′-[20]oxa[13]thia[1,14]diazatetracyclo [14.7.2.0~3,6~.0~19,24~]pentacosa[8,16,18,24]tetraen]-7′-yl)acetyl)-D-alaninate] | 9.86 | 6.59
CO[C@@]1(Cc2ncc(C)o2)/C=C/C[C@H](C)[C@@H](C)S(=O)(=O)NC(=O)c2ccc3c(c2)N(C[C@@H]2CC[C@H]21)C[C@@]1(CCCc2cc(Cl)ccc21)CO3 [Example 100529, (1S,3′R,6′R,7′S,8′E,11′S,12′R)-6-chloro-7′-methoxy-11′,12′-dimethyl-7′-((5-methyl-1,3-oxazol-2-yl)methyl)-3,4-dihydro-2H,15′H-spiro[naphthalene-1,22′-[20]oxa[13]thia[1,14]diazatetracyclo [14.7.2.0~3,6~.0~19,24~]pentacosa[8,16,18,24]tetraen]-15′-one 13′,13′-dioxide] | 9.54 | 6.61
Cc1ccnc(C[C@@]2(O)/C=C/C[C@H](C)[C@@H](C)S(=O)(=O)NC(=O)c3ccc4c(c3)N(C[C@@H]3CC[C@H]32)C[C@@]2(CCCc3cc(Cl)ccc32)CO4)c1 [Example 100532, (1S,3′R,6′R,7′R,8′E,11′S,12′R)-6-chloro-7′-hydroxy-11′,12′-dimethyl-7′-((4-methyl-2-pyridinyl)methyl)-3,4-dihydro-2H,15′H-spiro[naphthalene-1,22′-[20]oxa[13]thia[1,14]diazatetracyclo [14.7.2.0~3,6~.0~19,24~]pentacosa[8,16,18,24]tetraen]-15′-one 13′,13′-dioxide] | 10.28 | 5.06
Cc1ccnc(C[C@]2(O)/C=C/C[C@H](C)[C@@H](C)S(=O)(=O)NC(=O)c3ccc4c(c3)N(C[C@@H]3CC[C@H]32)C[C@@]2(CCCc3cc(Cl)ccc32)CO4)c1 [Example 100533, (1S,3′R,6′R,7′S,8′E,11′S,12′R)-6-chloro-7′-hydroxy-11′,12′-dimethyl-7′-((4-methyl-2-pyridinyl)methyl)-3,4-dihydro-2H,15′H-spiro[naphthalene-1,22′-[20]oxa[13]thia[1,14]diazatetracyclo [14.7.2.0~3,6~.0~19,24~]pentacosa[8,16,18,24]tetraen]-15′-one 13′,13′-dioxide] | 8.07 | 5.40
Cc1cc(C[C@@]2(O)/C=C/C[C@H](C)[C@@H](C)S(=O)(=O)NC(=O)c3ccc4c(c3)N(C[C@@H]3CC[C@H]32)C[C@@]2(CCCc3cc(Cl)ccc32)CO4)no1 [Example 100540, (1S,3′R,6′R,7′R,8′E,11′S,12′R)-6-chloro-7′-hydroxy-11′,12′-dimethyl-7′-((5-methyl-1,2-oxazol-3-yl)methyl)-3,4-dihydro-2H,15′H-spiro[naphthalene-1,22′-[20]oxa[13]thia[1,14]diazatetracyclo [14.7.2.0~3,6~.0~19,24~]pentacosa[8,16,18,24]tetraen]-15′-one 13′,13′-dioxide] | 9.56 | 6.49
Cc1cc(C[C@]2(O)/C=C/C[C@H](C)[C@@H](C)S(=O)(=O)NC(=O)c3ccc4c(c3)N(C[C@@H]3CC[C@H]32)C[C@@]2(CCCc3cc(Cl)ccc32)CO4)no1 [Example 100541, (1S,3′R,6′R,7′S,8′E,11′S,12′R)-6-chloro-7′-hydroxy-11′,12′-dimethyl-7′-((5-methyl-1,2-oxazol-3-yl)methyl)-3,4-dihydro-2H,15′H-spiro[naphthalene-1,22′-[20]oxa[13]thia[1,14]diazatetracyclo [14.7.2.0~3,6~.0~19,24~]pentacosa[8,16,18,24]tetraen]-15′-one 13′,13′-dioxide] | 9.12 | 6.08
CO[C@@]1(Cc2ncccc2C)/C=C/C[C@H](C)[C@@H](C)S(=O)(=O)NC(=O)c2ccc3c(c2)N(C[C@@H]2CC[C@H]21)C[C@@]1(CCCc2cc(Cl)ccc21)CO3 [Example 100542, (1S,3′R,6′R,7′S,8′E,11′S,12′R)-6-chloro-7′-methoxy-11′,12′-dimethyl-7′-((3-methyl-2-pyridinyl)methyl)-3,4-dihydro-2H,15′H-spiro[naphthalene-1,22′-[20]oxa[13]thia[1,14]diazatetracyclo [14.7.2.0~3,6~.0~19,24~]pentacosa[8,16,18,24]tetraen]-15′-one 13′,13′-dioxide] | 9.64 | 6.04
CO[C@@]1(CC2=NC(C)(C)C(=O)O2)/C=C/C[C@H](C)[C@@H](C)S(=O)(=O)NC(=O)c2ccc3c(c2)N(C[C@@H]2CC[C@H]21)C[C@@]1(CCCc2cc(Cl)ccc21)CO3 [Example 100547, (1S,3′R,6′R,7′S,8′E,11′S,12′R)-6-chloro-7′-((4,4-dimethyl-5-oxo-4,5-dihydro-1,3-oxazol-2-yl)methyl)-7′-methoxy-11′,12′-dimethyl-3,4-dihydro-2H,15′H-spiro[naphthalene-1,22′-[20]oxa[13]thia[1,14]diazatetracyclo [14.7.2.0~3,6~.0~19,24~]pentacosa[8,16,18,24]tetraen]-15′-one 13′,13′-dioxide] | 10.51 | 5.73
CO[C@]1(Cc2cc(C)on2)/C=C/C[C@H](C)[C@@H](C)S(=O)(=O)NC(=O)c2ccc3c(c2)N(C[C@@H]2CC[C@H]21)C[C@@]1(CCCc2cc(Cl)ccc21)CO3 [Example 100548, (1S,3′R,6′R,7′R,8′E,11′S,12′R)-6-chloro-7′-methoxy-11′,12′-dimethyl-7′-((5-methyl-1,2-oxazol-3-yl)methyl)-3,4-dihydro-2H,15′H-spiro[naphthalene-1,22′-[20]oxa[13]thia[1,14]diazatetracyclo [14.7.2.0~3,6~.0~19,24~]pentacosa[8,16,18,24]tetraen]-15′-one 13′,13′-dioxide] | 10.19 | 5.08
CO[C@@]1(CC2=NCC(=O)O2)/C=C/C[C@H](C)[C@@H](C)S(=O)(=O)NC(=O)c2ccc3c(c2)N(C[C@@H]2CC[C@H]21)C[C@@]1(CCCc2cc(Cl)ccc21)CO3 [Example 100549, (1S,3′R,6′R,7′S,8′E,11′S,12′R)-6-chloro-7′-methoxy-11′,12′-dimethyl-7′-((5-oxo-4,5-dihydro-1,3-oxazol-2-yl)methyl)-3,4-dihydro-2H,15′H-spiro[naphthalene-1,22′-[20]oxa[13]thia[1,14]diazatetracyclo [14.7.2.0~3,6~.0~19,24~]pentacosa[8,16,18,24]tetraen]-15′-one 13′,13′-dioxide] | 8.59 | 6.26
CO[C@@]1(Cc2cc(C)on2)/C=C/C[C@H](C)[C@@H](C)S(=O)(=O)NC(=O)c2ccc3c(c2)N(C[C@@H]2CC[C@H]21)C[C@@]1(CCCc2cc(Cl)ccc21)CO3 [Example 100552, (1S,3′R,6′R,7′S,8′E,11′S,12′R)-6-chloro-7′-methoxy-11′,12′-dimethyl-7′-((5-methyl-1,2-oxazol-3-yl)methyl)-3,4-dihydro-2H,15′H-spiro[naphthalene-1,22′-[20]oxa[13]thia[1,14]diazatetracyclo [14.7.2.0~3,6~.0~19,24~]pentacosa[8,16,18,24]tetraen]-15′-one 13′,13′-dioxide] | 10.19 | 6.02
CO[C@@]1(c2cncc(CN(C)C)c2)/C=C/C[C@H](C)[C@@H](C)S(=O)(=O)NC(=O)c2ccc3c(c2)N(C[C@@H]2CC[C@H]21)C[C@@]1(CCCc2cc(Cl)ccc21)CO3 [Example 100554, (1S,3′R,6′R,7′S,8′E,11′S,12′R)-6-chloro-7′-(5-((dimethylamino)methyl)-3-pyridinyl)-7′-methoxy-11′,12′-dimethyl-3,4-dihydro-2H,15′H-spiro[naphthalene-1,22′-[20]oxa[13]thia[1,14]diazatetracyclo [14.7.2.0~3,6~.0~19,24~]pentacosa[8,16,18,24]tetraen]-15′-one 13′,13′-dioxide] | 9.64 | 6.28
CO[C@@]1(Cc2cc(C)ccn2)/C=C/C[C@H](C)[C@@H](C)S(=O)(=O)NC(=O)c2ccc3c(c2)N(C[C@@H]2CC[C@H]21)C[C@@]1(CCCc2cc(Cl)ccc21)CO3 [Example 100560, (1S,3′R,6′R,7′S,8′E,11′S,12′R)-6-chloro-7′-methoxy-11′,12′-dimethyl-7′-((4-methyl-2-pyridinyl)methyl)-3,4-dihydro-2H,15′H-spiro[naphthalene-1,22′-[20]oxa[13]thia[1,14]diazatetracyclo [14.7.2.0~3,6~.0~19,24~]pentacosa[8,16,18,24]tetraen]-15′-one 13′,13′-dioxide] | 10.39 | 5.69
C=C(F)C[C@@]1(O)/C=C/C[C@H](C)[C@@H](C)S(=O)(=O)NC(=O)c2ccc3c(c2)N(C[C@@H]2CC[C@H]21)C[C@@]1(CCCc2cc(Cl)ccc21)CO3 [Example 100564, (1S,3′R,6′R,7′R,8′E,11′S,12′R)-6-chloro-7′-(2-fluoro-2-propen-1-yl)-7′-hydroxy-11′,12′-dimethyl-3,4-dihydro-2H,15′H-spiro[naphthalene-1,22′-[20]oxa[13]thia[1,14]diazatetracyclo [14.7.2.0~3,6~.0~19,24~]pentacosa[8,16,18,24]tetraen]-15′-one 13′,13′-dioxide] | 9.48 | 5.84
C=C(F)C[C@]1(O)/C=C/C[C@H](C)[C@@H](C)S(=O)(=O)NC(=O)c2ccc3c(c2)N(C[C@@H]2CC[C@H]21)C[C@@]1(CCCc2cc(Cl)ccc21)CO3 [Example 100565, (1S,3′R,6′R,7′S,8′E,11′S,12′R)-6-chloro-7′-(2-fluoro-2-propen-1-yl)-7′-hydroxy-11′,12′-dimethyl-3,4-dihydro-2H,15′H-spiro[naphthalene-1,22′-[20]oxa[13]thia[1,14]diazatetracyclo [14.7.2.0~3,6~.0~19,24~]pentacosa[8,16,18,24]tetraen]-15′-one 13′,13′-dioxide] | 8.81 | 5.69
